Broadly, the GI50 is the concentration giving 50% growth inhibition. What is called TGI is the concentration giving total growth inhibition. A lower TGI goes with greater sensitivity of the cells.

Among the test systems are DU-145 prostate; EKVX NSCLC; HCT-15 colon; HS 578T breast; K-562 leukemia; LOX IMVI melanoma; MOLT-4 leukemia; NCI-H460 lung; RXF 393 renal; SW-620 colon.
Test in all cases: DTP human tumour cell line panel, 48 h

Where “and” joins values, the source holds several entries; their conditions need not be identical. Equal entries are not always repeated.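 Step 1: Grow cells in 96-well plates. Step 2: Expose to compound for 48 hours at 5 concentrations. Step 3: Interpolate endpoints linearly; if unreached, use highest concentration. Here, GI50 denotes the concentration required for 50% inhibition of growth. TGI marks complete inhibition of growth.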 Where a SMILES comes first, the peptide text is derived from it. [ ]: non-standard residue; d: D form. The star is where a group is joined. ξ: configuration not given here. X3 = COc1ccc(C(N*)c2ccc(OC)cc2)cc1; NMeF = CN[C@@H](Cc1ccccc1)C(=O)O; NMeD = CN[C@@H](CC(=O)O)C(=O)O; NMeV = CN[C@H](C(=O)O)C(C)C; ξNMeV = CNC(C(=O)O)C(C)C; Boc = CC(C)(C)OC(=O)*; ξNMeA = CNC(C)C(=O)O; ξV = CC(C)C(N)C(=O)O

On to `COc1cccc(-c2nc(-c3ccc(NC(=O)OC(C)C)cc3)[nH]c2-c2ccnc(Br)c2)c1`, for which the GI50 with DU-145 prostate was 3.33 µM; with EKVX NSCLC, 2.45 µM; with HCT-15 colon it was 1190 nM; in the experiment on HS 578T breast it was 308 nM; in the experiment with K-562 leukemia, 1880 nM; in the experiment with LOX IMVI melanoma it was 1490 nM. Moreover, the GI50 was 1640 nM with MOLT-4 leukemia, 2990 nM with NCI-H460 lung, 282 nM in the experiment with RXF 393 renal and 3.32 µM in the experiment with SW-620 colon. Moreover, the TGI in the experiment on DU-145 prostate is more than 100 µM; in the experiment on EKVX NSCLC it was 10.3 µM; with HCT-15 colon, 4.79 µM; in the experiment on HS 578T breast, 1.69 µM; in the experiment with K-562 leukemia it was more than 100 µM; with LOX IMVI melanoma, 3.36 µM. In addition, the total growth inhibition concentration (TGI) in the experiment on MOLT-4 leukemia is 56 µM; in the experiment with NCI-H460 lung, more than 100 µM; in the experiment on RXF 393 renal it was 0.87 µM; with SW-620 colon it was more than 100 µM.

`O=C(CCCSc1nc(-c2ccccc2)cc(-c2ccccc2)n1)NO`: the GI50 is 1.83 µM in the experiment with DU-145 prostate; 2.93 µM in the experiment on EKVX NSCLC; 408 nM in the experiment with HCT-15 colon; 2320 nM in the experiment on HS 578T breast; 983 nM in the experiment on K-562 leukemia; 2260 nM in the experiment with LOX IMVI melanoma. Further, the GI50 is 1100 nM with MOLT-4 leukemia, 488 nM in the experiment on NCI-H460 lung, 525 nM in the experiment with RXF 393 renal and 0.777 µM in the experiment with SW-620 colon. Also, the concentration for total growth inhibition (TGI) with DU-145 prostate was 11.4 µM; in the experiment with EKVX NSCLC it was 14.5 µM; in the experiment on HCT-15 colon, 11.8 µM; in the experiment on HS 578T breast it was 27 µM; with K-562 leukemia, 18.9 µM; with LOX IMVI melanoma, 5.47 µM. Also, the TGI was 10.2 µM with MOLT-4 leukemia, 11.2 µM with NCI-H460 lung, 3.05 µM with RXF 393 renal and 12.7 µM in the experiment with SW-620 colon.

With `CCn1c(-c2nonc2N)nc2c(C#CC(C)(C)O)nc(OC[C@@H](N)c3ccccc3)cc21`, the GI50 is 4.45 µM in the experiment on DU-145 prostate; 10.4 µM in the experiment with EKVX NSCLC; 5780 nM with HCT-15 colon; 4560 nM in the experiment on HS 578T breast; 5190 nM with K-562 leukemia; 4200 nM in the experiment with LOX IMVI melanoma. Besides, the GI50 is 4420 nM in the experiment with MOLT-4 leukemia, 3970 nM in the experiment on NCI-H460 lung, 2850 nM in the experiment on RXF 393 renal and 4.58 µM in the experiment with SW-620 colon. The TGI with DU-145 prostate turned out to be 8.85 µM; in the experiment on EKVX NSCLC, 22.4 µM; with HCT-15 colon, 21.1 µM; in the experiment on HS 578T breast, 10.7 µM; with K-562 leukemia it was 14.1 µM; in the experiment with LOX IMVI melanoma, 8.82 µM. For the same compound, the TGI in the experiment on MOLT-4 leukemia was determined as 16 µM; in the experiment with NCI-H460 lung, 8.12 µM; in the experiment on RXF 393 renal, 5.97 µM; with SW-620 colon it was 9.5 µM.

Consider `COc1ccc(/C=N/NC(=O)c2cccc3cc[nH]c23)cc1O`, for which the GI50 in the experiment on DU-145 prostate is 3 µM; in the experiment with EKVX NSCLC, 11 µM; in the experiment on HCT-15 colon, 615 nM; in the experiment on HS 578T breast, 1470 nM; in the experiment with K-562 leukemia, 2170 nM; in the experiment on LOX IMVI melanoma it was 1300 nM. Further, the GI50 in the experiment on MOLT-4 leukemia was 2840 nM; in the experiment on NCI-H460 lung it was 2030 nM; in the experiment with RXF 393 renal, 5830 nM; with SW-620 colon, 0.65 µM. Further, the TGI with DU-145 prostate was more than 46.5 µM; with EKVX NSCLC, more than 100 µM; with HCT-15 colon it was more than 46.1 µM; in the experiment with HS 578T breast it was more than 30.3 µM; in the experiment with K-562 leukemia, more than 100 µM; with LOX IMVI melanoma, more than 100 µM. Also, the TGI with MOLT-4 leukemia is more than 66.2 µM; in the experiment with NCI-H460 lung, more than 68.3 µM; with RXF 393 renal it was more than 100 µM; in the experiment with SW-620 colon, more than 100 µM.

Turning to `COc1ccc(C(NC(=O)C[C@@H](C(=O)N(C)C(C)C(=O)O)N(C)C(=O)[C@@H]2CCCN2C(=O)[C@H](C(C)C)N(C)C(=O)C(C(C)C)N(C)C(=O)[C@H](Cc2ccccc2)N(C)C(=O)C(NC(=O)OC(C)(C)C)C(C)C)c2ccc(OC)cc2)cc1` (some centres not stated) (Boc-[ξV][NMeF][ξNMeV][NMeV]P[NMeD](X3)[ξNMeA]-OH), the concentration for total growth inhibition (TGI) is 37.5 µM in the experiment with DU-145 prostate; 37.5 µM and 39.6 µM in the experiment with EKVX NSCLC; 37.5 µM and 33.3 µM in the experiment on HCT-15 colon; 7.32 µM in the experiment with HS 578T breast; 26.9 µM and 43.8 µM in the experiment on K-562 leukemia; 15.7 µM and 31.2 µM in the experiment with LOX IMVI melanoma. In addition, the TGI was 19.3 µM and 43.7 µM with MOLT-4 leukemia; 37.5 µM and 33.3 µM in the experiment on NCI-H460 lung; 18.5 µM in the experiment on RXF 393 renal; 16.5 µM and 32.3 µM in the experiment with SW-620 colon. Further, the GI50 in the experiment on EKVX NSCLC was 21.6 µM; in the experiment on HCT-15 colon, 18200 nM; in the experiment with K-562 leukemia it was 18900 nM; in the experiment on LOX IMVI melanoma it was 17200 nM; in the experiment with MOLT-4 leukemia, 17000 nM; in the experiment on NCI-H460 lung, 17800 nM. For the same compound, the GI50 in the experiment on SW-620 colon was 18.3 µM.

These data come from PubChem BioAssay (NCI).
